Measurements: publication PMC8921165, “Preclinical characterization of [^18F]T-008, a novel PET imaging radioligand for cholesterol 24-hydroxylase” (European Journal of Nuclear Medicine and Molecular Imaging, 2021)

Tests used:
[1] = biological target: T1, Cholesterol 24-hydroxylase (CH24H) (Macaca mulatta, UniProt A0A5F7ZPE8); assay: in vivo PET enzyme occupancy, displacement of […]T-008 in rhesus brain
T1 construct: gene CYP46A1

[2] = biological target: T2, Cholesterol 24-hydroxylase (CH24H) (Mus musculus, UniProt Q9WVK8); assay: [3H]T-008 saturation radioligand binding; autoradiography in WT vs CH24H KO mouse brain sections
T2 construct: gene Cyp46a1
T2 sequence (Q9WVK8 whole entry): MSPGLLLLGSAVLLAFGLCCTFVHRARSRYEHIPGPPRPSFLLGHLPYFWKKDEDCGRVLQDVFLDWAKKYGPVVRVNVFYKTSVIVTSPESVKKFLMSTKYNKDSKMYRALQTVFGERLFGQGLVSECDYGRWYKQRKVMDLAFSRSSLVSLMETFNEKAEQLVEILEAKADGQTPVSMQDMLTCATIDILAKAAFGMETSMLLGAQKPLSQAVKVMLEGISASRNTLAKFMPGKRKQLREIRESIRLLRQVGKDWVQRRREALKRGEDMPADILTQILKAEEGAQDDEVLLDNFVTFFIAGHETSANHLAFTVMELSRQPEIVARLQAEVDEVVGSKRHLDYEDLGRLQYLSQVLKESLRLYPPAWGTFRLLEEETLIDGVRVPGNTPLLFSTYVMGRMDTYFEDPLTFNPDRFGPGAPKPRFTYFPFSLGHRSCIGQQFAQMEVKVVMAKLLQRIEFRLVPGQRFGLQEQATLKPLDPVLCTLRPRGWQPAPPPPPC

T1 sequence (A0A5F7ZPE8 1-500): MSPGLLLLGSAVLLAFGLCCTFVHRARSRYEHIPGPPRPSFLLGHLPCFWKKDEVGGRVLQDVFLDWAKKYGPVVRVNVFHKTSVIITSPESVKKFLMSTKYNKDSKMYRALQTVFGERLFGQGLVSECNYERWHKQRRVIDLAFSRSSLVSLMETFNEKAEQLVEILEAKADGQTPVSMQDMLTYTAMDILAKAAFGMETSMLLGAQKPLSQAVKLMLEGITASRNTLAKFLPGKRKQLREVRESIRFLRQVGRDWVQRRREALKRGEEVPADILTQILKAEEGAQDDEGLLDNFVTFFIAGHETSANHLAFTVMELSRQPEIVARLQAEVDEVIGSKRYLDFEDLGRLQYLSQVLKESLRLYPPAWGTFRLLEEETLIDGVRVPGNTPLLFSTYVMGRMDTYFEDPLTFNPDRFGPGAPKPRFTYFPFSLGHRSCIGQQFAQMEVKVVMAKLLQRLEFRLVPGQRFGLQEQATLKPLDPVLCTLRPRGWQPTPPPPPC

Kd [2] [nM]	SMILES	EC50 [1] [nM]
	O=C(c1cccnc1-c1ccncc1)N1CCC(O)(Cc2ccccc2)CC1 [soticlestat, (4-benzyl-4-hydroxypiperidin-1-yl)(2,4′-bipyridin-3-yl) methanone]	3.39
14 ± 1	O=C(C1CCN(c2cncnc2-c2ccc(F)cc2)CC1)N1CC(F)C1 [T-008, (3-fluoroazetidin-1-yl){1-[4-(4-fluorophenyl)pyrimidin-5-yl]piperidin-4-yl}methanone]	
